Measurements reported in patent publication US11414387B2, “Oxoacridinyl acetic acid derivatives and methods of use” (Stingthera, Inc., priority 2017, dated 2022).

The molecules below were run against hSTING-CTD (Homo sapiens (Human), UniProt Q86WV6) (assay: Human STING protein FP competition concentration response assay).
Type: binding
Experimental: (§1) A validated STING ligand, such as c-di-GMP, which is labeled with a read-out signal (e.g., a fluorescence signal such as fluorescein), is mixed with STING-CTD (e.g., mouse STING-CTD or human STING-CTD) with or without the presence of a compound of the present application. Changes in the read-out signal are measured (e.g., by fluorescence anisotropy) to determine the binding of the compound to STING-CTD.
(§2) Fluorescein labeled c-di-GMP, a validated STING ligand, was mixed with recombinant hSTING-CTD in a homogenous assay format with or without the presence of a compound of the present application (titrated) in PBS in black 384-well plates (10 μL per well). The fluorescence anisotropy was determined on a PerkinElmer EnVisions multi-mode plate reader. The plate can be read immediately after mixing the reagents or after a few hours without change of signals.
• 1) hSTING (Supplier: HDB) • 2) 2′-Fluo-AHC-c-di GMP (BIOLOG #F009) • 3) 2′3′-cGAMP (BIOLOG #C161) • 4) DMXAA (InvivoGen #tlrl-dmx) • 5) DMSO (Sigma, #D5879-100 mL) • 6) 10×PBS(HDB #MCP-020) • 7) Assay plate, 384-well black plate, solid black bottom (Greiner #784076) • 8) Compound dilution intermediate plate, 384 LDV plate (Labcyte #LP-0200) • 9) Liquid handler, ECHO550 (Labcyte) • 10) Liquid handler, Bravo (Aglient) • 11) Reader, Envision (PerkinElmer) • 12) Centrifuge (Eppendorf) • 13) Multichannel Pipette (Raining) • 14) 10 ml Reservoir (Corning) • 15) 15 ml centrifuge tube (Corning) • 16) Adhesive Plate seals (BioRad) Compound Preparation • a) Containers of each compound were centrifuged at 1000 rpm for 5 min. • b) Compounds were dissolved in DMSO at 30 mM. • c) Compounds were sufficiently vortexed, and centrifuged at 1000 rpm for 1 min. • d) 16 uL of the compound solution was transferred into a LDV Compound Plate. • e) 2-fold serial dilutions of the compound solution were made with DMSO, and 14 concentrations were made in the 384-well LDV Compound Plate. • f) The LDV plate was spun at 1000 rpm for 60 sec and sealed with foil (stored at −20° C. if not used immediately). • g) 335 nL of each compound from the LDV Compound Plate was transferred to Assay Plate (ECHO550). Probe Preparation • a) 200 uM probe stock (2′-Fluo-AHC-c-diGMP) was diluted by ddH2O to 6 uM working concentration. • b) 10-12 uL 6 uM working solution of probe was transferred into the LDV plate. • c) 50 nL per well 6 uM working solution of probe was transferred from the LDV plate to each well of the empty Assay Plate (Greiner 784076) by ECHO550 Buffer mode. • d) Probe final concentration was 30 nM when assay system was 10 uL. • e) The Assay Plate was spun at 1000 rpm for 1 min. Compound Addition • a) After the LDV Compound Plate was prepared, 335 nL compound (ECHO550 DMSO mode) was transferred from the LDV Compound Plate into the Assay Plate (Greiner 784076) containing 50 nL probe in each well according to the Assay Plate layout. • b) DMSO final concentration was 3.35% when assay system was 10 uL. • c) The Assay Plate was spun at 1000 rpm for 1 min. Protein Addition • a) Aliquot of hSTING protein was thawed on ice, briefly to generate uniform solution. • b) 55 uM stock protein was diluted in 1×PBS assay buffer to generate 10 uM final solutions. • c) For test compound and ZPE wells, 10 μL per well of 10 uM protein solutions was added into the Assay Plate containing both the probe and test compounds or DMSO using multichannel pipette. • d) For HPE wells, 10 μL/well of 1×PBS assay buffer instead of protein was added into the Assay Plate containing both the probe and DMSO using multichannel pipette. • e) The Assay Plate was spun at 1000 rpm for Imin. • f) The Assay Plate was incubated at r.t. for 10-20 min.
(§3) The EnVision plate reader was used to record the FA value of each well immediately after mixing the reagents or after a few hours without change of signals.
(§4) The raw data and calculated data (Fluorescence anisotropy (FA)) was exported from the EnVision reader. […]

Chain of hSTING-CTD (Q86WV6 135-379): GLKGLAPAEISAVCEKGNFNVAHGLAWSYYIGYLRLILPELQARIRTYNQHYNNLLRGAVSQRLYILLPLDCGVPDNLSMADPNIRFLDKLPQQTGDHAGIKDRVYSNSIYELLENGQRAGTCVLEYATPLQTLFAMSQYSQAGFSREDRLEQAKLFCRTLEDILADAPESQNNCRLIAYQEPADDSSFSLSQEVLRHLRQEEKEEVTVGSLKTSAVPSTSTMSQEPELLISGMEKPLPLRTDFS

IC50 | SMILES
500 to 1000 µM | Cc1ccc2c(=O)c3ccccc3n(CC(=O)O)c2c1C [Compound 99]
100 to 500 µM | Cc1ccc2c(=O)c3ccc(Cl)c(Cl)c3n(CC(=O)O)c2c1 [Compound 29]
> 1000 µM | COc1ccc2c(=O)c3ccc(C)cc3n(CC(=O)O)c2c1 [Compound 34]
> 1000 µM | Cc1ccc2c(=O)c3ccccc3n(CC(=O)O)c2c1Cl [Compound 19]

What follows are molecules tested against mSTING-CTD (Mus musculus (Mouse), UniProt Q3TBT3) (assay: Mouse STING protein FP competition concentration response assay).
Chain of mSTING-CTD (Q3TBT3 134-378): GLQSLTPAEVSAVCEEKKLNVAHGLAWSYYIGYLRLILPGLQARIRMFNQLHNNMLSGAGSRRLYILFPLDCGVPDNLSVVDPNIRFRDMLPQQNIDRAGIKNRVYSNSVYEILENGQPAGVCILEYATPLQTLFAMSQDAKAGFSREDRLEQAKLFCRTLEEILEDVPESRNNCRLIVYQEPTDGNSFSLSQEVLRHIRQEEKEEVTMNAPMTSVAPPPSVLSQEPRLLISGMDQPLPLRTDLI
Type: binding
Experimental: as §1
as §2, with “c-di-GMP” for “c-di-GMP, a validated STING ligand,”, “mSTING-CTD” for “recombinant hSTING-CTD in a homogenous assay format”, “application” for “application (titrated)”
• 1) 6×his-sumo-mSTING (Supplier: HDB) • 2) 2′-Fluo-AHC-c-di GMP (BIOLOG #F009) • 3) 23-cGAMP (BIOLOG #C161) • 4) DMXAA (InvivoGen #tlrl-dmx) • 5) DMSO (Sigma. #D5879-100 mL) • 6) 10×PBS(HDB #MCP-020) • 7) Assay plate, 384-well black plate, solid black bottom (Greiner #784076) • 8) Compound dilution intermediate plate, 384 LDV plate (Labcyte #LP-0200) • 9) Liquid handler, ECHO550 (Labcyte) • 10) Liquid handler, Bravo (Aglient) • 11) Reader, Envision (PerkinElmer) • 12) Centrifuge (Eppendorf) • 13) Multichannel Pipette (Raining) • 14) 10 ml Reservoir (Corning) • 15) 15 ml centrifuge tube (Corning) • 16) Adhesive Plate seals (BioRad) Compound Preparation • a) Containers of each compound were centrifuged at 1000 rpm for 5 min. • b) Compounds were dissolved in DMSO at 30 mM. • c) Compounds were sufficiently vortexed, and centrifuged at 1000 rpm for 1 min. • d) 16 uL of the compound solution was transferred into a LDV Compound Plate. • e) 2-fold serial dilutions of the compound solution were made with DMSO, and 14 concentrations were made in the 384-well LDV Compound Plate. • f) The LDV plate was spun at 1000 rpm for 60 sec and sealed with foil (stored at −20° C. if not used immediately). • g) 335 nL of each compound from the LDV Compound Plate was transferred to Assay Plate (ECHO550). Probe Preparation • a) 200 uM probe stock (2′-Fluo-AHC-c-diGMP) was diluted by dd2O to 6 uM working concentration. • b) 10-12 uL 6 uM working solution of probe was transferred into the LDV plate. • c) 50 nL per well 6 uM working solution of probe was transferred from the LDV plate to each well of the empty Assay Plate (Greiner 784076) by ECHO550 Buffer mode. • d) Probe final concentration was 30 nM when assay system was 10 uL. • e) The Assay Plate was spun at 1000 rpm for 1 min. Compound Addition • a) After the LDV Compound Plate was prepared, 100 nL compound (ECHO550 DMSO mode) was transferred from the LDV Compound Plate into the Assay Plate (Greiner 784076) containing 50 nL probe in each well according to the Assay Plate layout. • b) DMSO final concentration was 1% when assay system was 10 uL. • c) The Assay Plate was spun at 1000 rpm for 1 min. Protein Addition • a) Aliquot of 6×his-sumo-mSTING protein was thawed on ice, briefly to generate uniform solution. • b) 66 uM stock protein was diluted in 1×PBS assay buffer to generate 8 uM final solutions. • c) For test compound and ZPE wells, 10 μL per well of 8 uM protein solutions was added into the Assay Plate containing both the probe and test compounds or DMSO using multichannel pipette. • d) For HPE wells, 10 µL/well of 1×PBS assay buffer instead of protein was added into the Assay Plate containing both the probe and DMSO using multichannel pipette. • e) The Assay Plate was spun at 1000 rpm for 1 min. • f) The Assay Plate was incubated at r.t. for 10-20 min.
as §3, §4

SMILES | IC50
Cc1cccc2c1c(=O)c1ccccc1n2CC(=O)O [Compound 3] | 10 to 50 µM
Cc1ccc2c(=O)c3ccc(F)cc3n(CC(=O)O)c2c1 [Compound 33] | 10 to 50 µM
O=C(O)Cn1c2ccccc2c(=O)c2c(Cl)cccc21 [Compound 2] | 50 to 100 µM
O=C(O)Cn1c2ccccc2c(=O)c2c(Br)cccc21 [Compound 20] | 50 to 100 µM
O=C(O)Cn1c2ccccc2c(=O)c2ccc(Br)cc21 [Compound 18] | 10 to 50 µM
O=C(O)Cn1c2ccccc2c(=O)c2ccc(Cl)cc21 [Compound 5] | 10 to 50 µM
O=C(O)Cn1c2ccccc2c(=O)c2cc(Br)ccc21 [Compound 21] | > 100 µM
O=C(O)Cn1c2ccccc2c(=O)c2c(F)cccc21 [Compound 1] | 50 to 100 µM
O=C(O)Cn1c2ccccc2c(=O)c2ccc(C#Cc3ccccc3)cc21 [Compound 25] | 10 to 50 µM
Cc1ccc2c(=O)c3ccccc3n(CC(=O)O)c2c1C [Compound 99] | 50 to 100 µM
Cc1ccc2c(=O)c3ccc(Cl)c(Cl)c3n(CC(=O)O)c2c1 [Compound 29] | 10 to 50 µM
O=C(O)Cn1c2ccccc2c(=O)c2ccc(F)cc21 [Compound 4] | 10 to 50 µM
Cc1ccc2c(=O)c3ccccc3n(CC(=O)O)c2c1Cl [Compound 19] | 10 to 50 µM

Results, then the molecule that gave them:

IC50 | SMILES
10 to 50 µM | Cc1ccc2c(=O)c3c(Cl)cccc3n(CC(=O)O)c2c1 [Compound 16]
10 to 50 µM | Cc1ccc2c(=O)c3c(C)cccc3n(CC(=O)O)c2c1 [Compound 14]
10 to 50 µM | Cc1ccc2c(=O)c3c(F)cccc3n(CC(=O)O)c2c1 [Compound 36]
10 to 50 µM | COc1ccc2c(=O)c3c(C)cccc3n(CC(=O)O)c2c1 [Compound 35]
> 100 µM | COc1cccc2c1c(=O)c1ccc(C)cc1n2CC(=O)O [Compound 32]
10 to 50 µM | COc1ccc2c(=O)c3ccc(C)cc3n(CC(=O)O)c2c1 [Compound 34]
10 to 50 µM | Cc1ccc2c(=O)c3ccccc3n(CC(=O)O)c2c1 [Compound 6]
